From ChEMBL document CHEMBL4765282, “Design, synthesis and biological evaluation of 1H-pyrazolo [3,4-d]pyrimidine derivatives as PAK1 inhibitors that trigger apoptosis, ER stress and anti-migration effect in MDA-MB-231 cells” (Eur J Med Chem, 2020)

Legend:
Format in all cases: functional
[1] = Effect on STC2 gene expression in human MDA-MB-231 cells by Trizol reagent based RNA sequencing analysis relative to control
[2] = Effect on CASC10 gene expression in human MDA-MB-231 cells by Trizol reagent based RNA sequencing analysis relative to control
[3] = Effect on CTGF gene expression in human MDA-MB-231 cells by Trizol reagent based RNA sequencing analysis relative to control
[4] = Effect on GRID1 gene expression in human MDA-MB-231 cells by Trizol reagent based RNA sequencing analysis relative to control

Measured: fold change (FC)

O=C(Nc1cc(C(F)(F)F)cc(C(F)(F)F)c1)NC1CCN(c2ncnc3[nH]ncc23)CC1
>2: all assays above
